Experimental data taken from US20100021918A1, “METHOD FOR ASSAYING ACTION OF ANTITUMOR AGENT USING SPLICING DEFECTS AS INDEX” (Eisai R&D Management Co., Ltd., priority 2007, published 2010).

Tested on: peripheral blood mononuclear cells (PBMC)
Assay: Microarray analysis (3), dose-dependent intron expression in PBMC at 3, 10, 30 nM, Table 5
Assay type: cell-based, human
Experimental: PBMC was suspended in RPMI1640 medium (containing 10% FBS, penicillin, and streptomycin) to 5×10^6 cells/ml and 1 ml of the suspension was plated per well of a 24-well plate. Immediately, 111 μl of 10 times-concentrated (8E,12E,14E)-7-((4-cycloheptylpiperazin-1-yl)carbonyl)oxy-3,6,16,21-tetrahydroxy-6,10,12,16,20-pentamethyl-18,19-epoxytricosa-8,12,14-trien-11-olide was added to the well (six wells per each concentration tested). The cells were then cultured in an incubator with 5% carbon dioxide gas at 37° C. Three hours later, the supernatant was collected and centrifuged at 1500 rpm for five minutes. TRI reagent (SIGMA) (1 ml) was added to each well of the plate from which the supernatant was removed to harvest the cells, which was added to the centrifuged pellet to dissolve. RNA was purified in accordance with the protocol of TRI reagent. RNA was further purified using RNeasy (QIAGEN) and, in accordance with the protocol, DNaseI was added to the samples during the procedure. Absorbance at 260 nm was measured to quantify an amount of RNA.
Ribosomal RNA was removed from 1 μg of each total RNA of control cells (n=3) and cells with the treatment (n=3) using RiboMinus Human/Mouse Transcriptome Isolation Kit (Invitrogen). Single stranded cDNA synthesis, double stranded cDNA synthesis, cRNA synthesis, second single stranded cDNA synthesis, cDNA fragmentation, and cDNA labeling in order were carried out for total RNA from which ribosomal RNA was removed, using GeneChip Whole Transcript Sense Target Labeling and Control Reagents (Affymetrix) to make a cDNA probe. Subsequently, the cDNA probe was used for hybridization with Human Exon 1.0 ST Array (Affymetrix). The array was washed and stained, and luminescence intensity was measured by a scanner.
The expression level of the probe set and the gene was quantified by using Expression Console Ver. 1.0 (Affymetrix) with Summarization Method and Normalization Method being set to “Median polish as used in RMA” and “None”, respectively. The expression level of the probe was normalized with that of the gene.
Probe sets showing that the normalized change in the level expression of the probe set in the group with the treatment at 30 nM was more than 5 times; the expression level of the probe set and the gene in the group with the treatment at 30 nM was more than 100; and probe set annotation was “extended, full, free”, were picked out. Regression analysis was performed with the probe sets extracted for the control group, the group with the treatment at 3 nM, the group with the treatment at 10 nM, and the group with the treatment at 30 nM to determine a p and q value for the slope of regression formula. A gene containing the probe sets with the q value of less than 5% was determined as a candidate gene with increased expression level of the intron regions (Table 5).
In Table 5, for the gene evaluated, gene name (Gene Name), abbreviated name (Gene Symbol), accession number (Accession), alias name (Synonym), transcription cluster number in Human Exon 1.0 ST Array (Human Exon 1.0 ST Array Transcription Cluster ID), chromosome number (Chromosome), type of strand (Strand), start region (Start), stop region (Stop), and change in expression level per 1 nM (Fold Change/nM) were respectively shown.

CCC(O)C(C)C1OC1CC(C)(O)/C=C/C=C(\C)C1OC(=O)CC(O)CCC(C)(O)C(OC(=O)N2CCN(C3CCCCCC3)CC2)/C=C/C1C (stereo not shown) [E7107, (8E,12E,14E)-7-((4-cycloheptylpiperazin-1-yl)carbonyl)oxy-3,6,16,21-tetrahydroxy-6,10,12,16,20-pentamethyl-18,19-epoxytricosa-8,12,14-trien-11-olide]
Fold Change/nM (gene ABCC1, intron expression, 3, 10, 30 nM): 1.05 nM⁻¹ | Fold Change/nM (gene ADAR introns, regression over control, 3, 10, 30 nM): 1.05 nM⁻¹ | Fold Change/nM (gene AMPD3 // PPARA // TRMU // GTSE1, intron expression, 3, 10, 30 nM): 1.05 nM⁻¹ | Fold Change/nM (gene ANKH introns, regression over control, 3, 10, 30 nM): 1.05 nM⁻¹ | Fold Change/nM (gene ARF1 introns, regression over control, 3, 10, 30 nM): 1.05 nM⁻¹ | Fold Change/nM (gene ARHGDIB introns, regression over control, 3, 10, 30 nM): 1.05 nM⁻¹ | Fold Change/nM (gene ATP8A1 // PCLKC, intron expression, 3, 10, 30 nM): 1.05 nM⁻¹ | Fold Change/nM (gene AUTS2, intron expression, 3, 10, 30 nM): 1.05 nM⁻¹ | Fold Change/nM (gene BAT2D1, intron expression, 3, 10, 30 nM): 1.05 nM⁻¹ | Fold Change/nM (gene BCL9L, intron expression, 3, 10, 30 nM): 1.05 nM⁻¹ | Fold Change/nM (gene C3orf63, intron expression, 3, 10, 30 nM): 1.05 nM⁻¹ | Fold Change/nM (gene C13orf18, intron expression, 3, 10, 30 nM): 1.05 nM⁻¹ | Fold Change/nM (gene C22orf28, intron expression, 3, 10, 30 nM): 1.05 nM⁻¹ | Fold Change/nM (gene CALR, intron expression, 3, 10, 30 nM): 1.05 nM⁻¹ | Fold Change/nM (gene CAND1 introns, regression over control, 3, 10, 30 nM): 1.05 nM⁻¹ | Fold Change/nM (gene CCND2 introns, regression over control, 3, 10, 30 nM): 1.05 nM⁻¹ | Fold Change/nM (gene CDC2L5, intron expression, 3, 10, 30 nM): 1.05 nM⁻¹ | Fold Change/nM (gene CEP170 // CEP170L, intron expression, 3, 10, 30 nM): 1.05 nM⁻¹ | Fold Change/nM (gene CHST11, intron expression, 3, 10, 30 nM): 1.05 nM⁻¹ | Fold Change/nM (gene DDEF1, intron expression, 3, 10, 30 nM): 1.05 nM⁻¹ | Fold Change/nM (gene DDX3Y introns, regression over control, 3, 10, 30 nM): 1.05 nM⁻¹ | Fold Change/nM (gene DDX18 // WNT8B, intron expression, 3, 10, 30 nM): 1.05 nM⁻¹ | Fold Change/nM (gene DENND4A introns, regression over control, 3, 10, 30 nM): 1.05 nM⁻¹ | Fold Change/nM (gene DPF2, intron expression, 3, 10, 30 nM): 1.05 nM⁻¹ | Fold Change/nM (gene DRAM, intron expression, 3, 10, 30 nM): 1.05 nM⁻¹ | Fold Change/nM (gene DUSP16, intron expression, 3, 10, 30 nM): 1.05 nM⁻¹ | Fold Change/nM (gene EDD1, intron expression, 3, 10, 30 nM): 1.05 nM⁻¹ | Fold Change/nM (gene EIF3S10, intron expression, 3, 10, 30 nM): 1.05 nM⁻¹ | Fold Change/nM (gene EIF4A1 // SENP3, intron expression, 3, 10, 30 nM): 1.05 nM⁻¹ | Fold Change/nM (gene FBXO11, intron expression, 3, 10, 30 nM): 1.05 nM⁻¹ | Fold Change/nM (gene FNTA, intron expression, 3, 10, 30 nM): 1.05 nM⁻¹ | Fold Change/nM (gene FOXK2, intron expression, 3, 10, 30 nM): 1.05 nM⁻¹ | Fold Change/nM (gene FOXO3A, intron expression, 3, 10, 30 nM): 1.05 nM⁻¹ | Fold Change/nM (gene GAK, intron expression, 3, 10, 30 nM): 1.05 nM⁻¹ | Fold Change/nM (gene GDI1 introns, regression over control, 3, 10, 30 nM): 1.05 nM⁻¹ | Fold Change/nM (gene GNA12, intron expression, 3, 10, 30 nM): 1.05 nM⁻¹ | Fold Change/nM (gene GP5 // ZNF394, intron expression, 3, 10, 30 nM): 1.05 nM⁻¹ | Fold Change/nM (gene GTF3C4 introns, regression over control, 3, 10, 30 nM): 1.05 nM⁻¹ | Fold Change/nM (gene GTPBP4, intron expression, 3, 10, 30 nM): 1.05 nM⁻¹ | Fold Change/nM (gene IDI1 introns, regression over control, 3, 10, 30 nM): 1.05 nM⁻¹ | Fold Change/nM (gene IFNGR1 introns, regression over control, 3, 10, 30 nM): 1.05 nM⁻¹ | Fold Change/nM (gene KIAA0226 introns, regression over control, 3, 10, 30 nM): 1.05 nM⁻¹ | Fold Change/nM (gene KLF9 introns, regression over control, 3, 10, 30 nM): 1.05 nM⁻¹ | Fold Change/nM (gene LDLR introns, regression over control, 3, 10, 30 nM): 1.05 nM⁻¹ | Fold Change/nM (gene MAPK6, intron expression, 3, 10, 30 nM): 1.05 nM⁻¹ | Fold Change/nM (gene MKI67IP introns, regression over control, 3, 10, 30 nM): 1.05 nM⁻¹ | Fold Change/nM (gene MLL3 // ADAMTS2 // LRRK1 // BAGE3 introns, regression over control, 3, 10, 30 nM): 1.05 nM⁻¹ | Fold Change/nM (gene MLLT3, intron expression, 3, 10, 30 nM): 1.05 nM⁻¹ | Fold Change/nM (gene MTMR6 introns, regression over control, 3, 10, 30 nM): 1.05 nM⁻¹ | Fold Change/nM (gene MYD88, intron expression, 3, 10, 30 nM): 1.05 nM⁻¹ | Fold Change/nM (gene NFKB2, intron expression, 3, 10, 30 nM): 1.05 nM⁻¹ | Fold Change/nM (gene NIPBL // NRBP1 introns, regression over control, 3, 10, 30 nM): 1.05 nM⁻¹ | Fold Change/nM (gene NPAT, intron expression, 3, 10, 30 nM): 1.05 nM⁻¹ | Fold Change/nM (gene NR3C1, intron expression, 3, 10, 30 nM): 1.05 nM⁻¹ | Fold Change/nM (gene PAK2, intron expression, 3, 10, 30 nM): 1.05 nM⁻¹ | Fold Change/nM (gene PJA2 introns, regression over control, 3, 10, 30 nM): 1.05 nM⁻¹ | Fold Change/nM (gene PLEK, intron expression, 3, 10, 30 nM): 1.05 nM⁻¹ | Fold Change/nM (gene PLEKHM1, intron expression, 3, 10, 30 nM): 1.05 nM⁻¹ | Fold Change/nM (gene POLR3E introns, regression over control, 3, 10, 30 nM): 1.05 nM⁻¹ | Fold Change/nM (gene PPP1CB, intron expression, 3, 10, 30 nM): 1.05 nM⁻¹ | Fold Change/nM (gene PRKAR1A, intron expression, 3, 10, 30 nM): 1.05 nM⁻¹ | Fold Change/nM (gene PRPF4B, intron expression, 3, 10, 30 nM): 1.05 nM⁻¹ | Fold Change/nM (gene PSEN1, intron expression, 3, 10, 30 nM): 1.05 nM⁻¹ | Fold Change/nM (gene PSMD11, intron expression, 3, 10, 30 nM): 1.05 nM⁻¹ | Fold Change/nM (gene RANGAP1, intron expression, 3, 10, 30 nM): 1.05 nM⁻¹ | Fold Change/nM (gene RARA, intron expression, 3, 10, 30 nM): 1.05 nM⁻¹ | Fold Change/nM (gene RBM23 // C9orf102, intron expression, 3, 10, 30 nM): 1.05 nM⁻¹ | Fold Change/nM (gene SETD5, intron expression, 3, 10, 30 nM): 1.05 nM⁻¹ | Fold Change/nM (gene SF3B1, intron expression, 3, 10, 30 nM): 1.05 nM⁻¹ | Fold Change/nM (gene SF3B2, intron expression, 3, 10, 30 nM): 1.05 nM⁻¹ | Fold Change/nM (gene SFPQ, intron expression, 3, 10, 30 nM): 1.05 nM⁻¹ | Fold Change/nM (gene SFRS2IP introns, regression over control, 3, 10, 30 nM): 1.05 nM⁻¹ | Fold Change/nM (gene SFRS3, intron expression, 3, 10, 30 nM): 1.05 nM⁻¹ | Fold Change/nM (gene SLFN11, intron expression, 3, 10, 30 nM): 1.05 nM⁻¹ | Fold Change/nM (gene ST8SIA4 introns, regression over control, 3, 10, 30 nM): 1.05 nM⁻¹ | Fold Change/nM (gene STX6, intron expression, 3, 10, 30 nM): 1.05 nM⁻¹ | Fold Change/nM (gene SUPV3L1 introns, regression over control, 3, 10, 30 nM): 1.05 nM⁻¹ | Fold Change/nM (gene THRAP1 introns, regression over control, 3, 10, 30 nM): 1.05 nM⁻¹ | Fold Change/nM (gene TLR4, intron expression, 3, 10, 30 nM): 1.05 nM⁻¹ | Fold Change/nM (gene TMEM1, intron expression, 3, 10, 30 nM): 1.05 nM⁻¹ | Fold Change/nM (gene TMEM2, intron expression, 3, 10, 30 nM): 1.05 nM⁻¹ | Fold Change/nM (gene TNFSF8, intron expression, 3, 10, 30 nM): 1.05 nM⁻¹ | Fold Change/nM (gene TRAF3 introns, regression over control, 3, 10, 30 nM): 1.05 nM⁻¹ | Fold Change/nM (gene UBXD2 introns, regression over control, 3, 10, 30 nM): 1.05 nM⁻¹ | Fold Change/nM (gene USP4, intron expression, 3, 10, 30 nM): 1.05 nM⁻¹ | Fold Change/nM (gene USP38, intron expression, 3, 10, 30 nM): 1.05 nM⁻¹ | Fold Change/nM (gene USP47 introns, regression over control, 3, 10, 30 nM): 1.05 nM⁻¹ | Fold Change/nM (gene YME1L1, intron expression, 3, 10, 30 nM): 1.05 nM⁻¹ | Fold Change/nM (gene ZNF267, intron expression, 3, 10, 30 nM): 1.05 nM⁻¹ | Fold Change/nM (introns of gene ACSL1, regression over control, 3, 10, 30 nM): 1.07 nM⁻¹ | Fold Change/nM (introns of gene BASP1, regression over control, 3, 10, 30 nM): 1.07 nM⁻¹ | Fold Change/nM (introns of gene CD2, regression over control, 3, 10, 30 nM): 1.07 nM⁻¹ | Fold Change/nM (introns of gene EIF2C2, regression over control, 3, 10, 30 nM): 1.07 nM⁻¹ | Fold Change/nM (introns of gene GCH1, regression over control, 3, 10, 30 nM): 1.07 nM⁻¹ | Fold Change/nM (introns of gene ITGAV, regression over control, 3, 10, 30 nM): 1.08 nM⁻¹ | Fold Change/nM (introns of gene NFKB1, regression over control, 3, 10, 30 nM): 1.07 nM⁻¹ | Fold Change/nM (introns of gene NUMB, regression over control, 3, 10, 30 nM): 1.07 nM⁻¹ | Fold Change/nM (introns of gene PRKCE, regression over control, 3, 10, 30 nM): 1.07 nM⁻¹ | Fold Change/nM (introns of gene PSMD3, regression over control, 3, 10, 30 nM): 1.07 nM⁻¹ | Fold Change/nM (introns of gene QKI, regression over control, 3, 10, 30 nM): 1.07 nM⁻¹
